Assay results as given in US4115569A, “Cyclic diamine derivatives” (Hoechst Aktiengesellschaft, priority 1971, dated 1978).
Converted amounts (≈) assume the structure as drawn. Structures can show the parent of a compound that is named as a salt.

Assays:
[1] = tested on: filaria; conditions: in vivo; cited from earlier work
[2] = tested on: dictyocaulus; conditions: in vivo; cited from earlier work
[3] = tested on: isolated guinea pig intestine (acetylcholine); assay: spasmolytic action against acetylcholine on the isolated guinea pig intestine; design: key to Spasmolytic action against Acetylcholine (ED50): (--): reduction of 10%; --: reduction of 25%; ----: reduction of 50%; .phi.: substantially no action; conditions: acetylcholine 10^-7 g/ml; for IC50: Cavia porcellus, read-out: Spasmolytic action against Acetylcholine (ED50)
Protocol: (§1) The compounds according to the invention were also tested for their influence on coronary through-flow on the heart mechanogram and for their spasmolytic action.
(§2) The latter test was performed on the isolated guinea pig intestine by the method of R. Magnus ("Pflugers Archiv" Vol 102 (1904) p 123).

[4] = tested on: reserpine ptosis; assay: reserpine antagonism (reserpine ptosis test); assay type: in vivo; conditions: for change in vivo at 25 mg/kg: po, 1 hr after 25 mg/kg of substance orally, read-out: % Influence on reserpine ptosis
Protocol: The therapeutic activity of compounds according to the invention was determined by measurement of reserpine antagonism (B. Rubin et al., "J. Pharmacol. exp. Therap." Vol 120 (1957) p 125) and by the effect on the fighting behaviour of fighting mice in the test arrangement of G. Y. Yen et al., (Arch. Int. Pharmacodyn, Vol 123 (1959) p 179).

[5] = tested on: isolated guinea pig intestine (histamine); assay: spasmolytic action against histamine on the isolated guinea pig intestine; design: key to Spasmolytic action against Histamine (ED50): (--): reduction of 10%; --: reduction of 25%; ----: reduction of 50%; .phi.: substantially no action; conditions: histamine 10^-7 g/ml; for IC50: Cavia porcellus, read-out: Spasmolytic action against Histamine (ED50)
Protocol: as §1, §2

[6] = tested on: coronary vessels; assay: influence on coronary through-flow
Protocol: as §1

[7] = tested on: heart; assay: influence on the heart mechanogram (heart muscle force); design: key to Action on the heart mechanogram: (--): reduction of 10%; --: reduction of 25%; ----: reduction of 50%; .phi.: substantially no action
Protocol: The compounds according to the invention were also tested for their influence on coronary through-flow on the heart mechanogram and for their spasmolytic action. […]

[8] = tested on: isolated guinea pig intestine (BaCl2); assay: spasmolytic action against barium chloride on the isolated guinea pig intestine; design: key to Spasmolytic action against BaCl2 (ED50): (--): reduction of 10%; --: reduction of 25%; ----: reduction of 50%; .phi.: substantially no action; conditions: barium chloride 10^-4 mg/ml; for IC50: Cavia porcellus, read-out: Spasmolytic action against BaCl2 (ED50)
Protocol: as §1, §2

[9] = acute toxicity (LD50); conditions: in vivo

## CCN(CC)C(=O)N1CCN(C)CC1 [4-methylpiperazinocarboxylic acid-(1)-diethylamide citrate]
[1]
  use against filaria infections: successfully used against filaria
[2]
  use against dictyocaulus infections: successfully used

## O=C(c1cc2ccccc2o1)N1CCN(Cc2ccccc2)CC1 [Compound 1, N-Benzyl-coumarillic acid piperazide]
[3]
  IC50: 10 mg/L (≈ 31.2 µM)
[4]
  change in vivo at 25 mg/kg: -50%
[5]
  IC50: 1 to 10 mg/L (≈ 3.12 to 31.2 µM)
[6]
  action on coronary flow / coronary vessels (in words): considerable increase in the coronary through-flow without subsequent contraction of the vessel
[6]; dose 10 (82 g)
  Coronary through-flow: Duration (initial or only value): 0.5 min
[6]; dose 30 (82 g)
  Coronary through-flow: Change (initial or only value): +38%
  Coronary through-flow: Duration (initial or only value): 1.0 min
[6]; dose 100 (82 g)
  Coronary through-flow: Change (initial or only value): +120%
  Coronary through-flow: Duration (initial or only value): 26.0 min
[7]; dose 10 (82 g)
  Action on the heart mechanogram: .phi.
[7]; dose 30 (82 g)
  Action on the heart mechanogram: .phi.
[7]; dose 100 (82 g)
  Action on the heart mechanogram: -- (reduction of 25%)
[7]; dose of 100 μg
  reduction of the heart muscle force: 25%
[8]
  IC50: 1 to 10 mg/L (≈ 3.12 to 31.2 µM)
[9]; ip, i.p. mouse
  LD50: 320 mg/kg
[9]; po, orally, mouse
  LD50: 2050 mg/kg

## O=C(c1cc2ccccc2o1)N1CCN(Cc2ccc(Cl)cc2)CC1 [Compound 2, N-(4-chloro)-benzyl-coumarillic acid piperazide]
[3]
  Spasmolytic action against Acetylcholine (ED50): >
[5]
  IC50: 1 to 10 mg/L (≈ 2.82 to 28.2 µM)
[8]
  IC50: 1 to 10 mg/L (≈ 2.82 to 28.2 µM)

## O=C(c1cc2ccccc2o1)N1CCN(Cc2ccc(Cl)c(Cl)c2)CC1 [Compound 3, N-(3,4-dichlorobenzyl)-coumarillic acid piperazide]
[4]
  change in vivo at 25 mg/kg: -22%
[9]; ip, i.p. mouse
  LD50: 1000 to 1500 mg/kg

## O=C(c1cc2ccccc2o1)N1CCN(Cc2ccc(F)cc2)CC1 [Compound 5, N-(4-fluorobenzyl)-coumarillic acid piperazide]
[4]
  change in vivo at 25 mg/kg: -50%
[9]; ip, i.p. mouse
  LD50: 100 to 250 mg/kg

## O=C(c1cc2ccccc2o1)N1CCN(Cc2cccs2)CC1 [Compound 16, N-thenyl-coumarillic acid piperazide]
[3]
  Spasmolytic action against Acetylcholine (ED50): .phi.
[4]
  change in vivo at 25 mg/kg: -54%
[5]
  Spasmolytic action against Histamine (ED50): .phi.
[8]
  Spasmolytic action against BaCl2 (ED50): .phi.
[9]; ip, i.p. mouse
  LD50: 100 to 250 mg/kg
[9]; po, orally, mouse
  LD50: 1980 mg/kg

## O=C(c1cc2ccccc2o1)N1CCCN(Cc2ccccc2)CC1 [Compound 17, N-benzyl-coumarillic acid homopiperazide]
[6]; dose 10 (82 g)
  Coronary through-flow: Change (initial or only value): +8%
  Coronary through-flow: Duration (initial or only value): 1.0 min
[6]; dose 30 (82 g)
  Coronary through-flow: Change (initial or only value): +25%
  Coronary through-flow: Duration (initial or only value): 1.0 min
[7]; dose 10 (82 g)
  Action on the heart mechanogram: .phi.
[7]; dose 30 (82 g)
  Action on the heart mechanogram: .phi.

## O=C(C1Cc2ccccc2O1)N1CCN(Cc2ccccc2)CC1 (stereo not shown) [Compound 20, N-benzyl-2,3-dihydrocoumarillic acid piperazide]
[3]
  IC50: 3 mg/L (≈ 9.3 µM)
[4]
  change in vivo at 25 mg/kg: -32%
[5]
  IC50: 1 mg/L (≈ 3.1 µM)
[6]; dose 10 (82 g)
  Coronary through-flow: Change (initial or only value): +25%
[6]; dose 50 (82 g)
  Coronary through-flow: Change (initial or only value): +50%
[8]
  IC50: 0.3 mg/L (≈ 0.93 µM)
[9]; ip, i.p. mouse
  LD50: 100 to 150 mg/kg

## O=C(c1ccco1)N1CCN(Cc2ccccc2)CC1 [Compound 21, N-benzyl-furan-2-carboxylic acid piperazide]
[3]
  Spasmolytic action against Acetylcholine (ED50): .phi.
[5]
  IC50: 0.1 mg/L (≈ 0.37 µM)
[8]
  Spasmolytic action against BaCl2 (ED50): .phi.

## O=C(c1ccco1)N1CCN(Cc2ccc(Cl)c(Cl)c2)CC1 [Compound 22, N-3,4-dichlorobenzyl-furan-2-carboxylic acid piperazide]
[4]
  change in vivo at 25 mg/kg: -23%
[9]; ip, i.p. mouse
  LD50: 250 to 500 mg/kg

## CC1=C(C(=O)N2CCN(Cc3ccccc3)CC2)CCCO1 [Compound 24, N-benzyl-[6-methyl-2,3-dihydropyran-5-carboxylic acid]piperazide]
[3]
  Spasmolytic action against Acetylcholine (ED50): .phi.
[5]
  Spasmolytic action against Histamine (ED50): .phi.
[8]
  Spasmolytic action against BaCl2 (ED50): .phi.

## CC1=C(C(=O)N2CCN(Cc3ccc(Cl)c(Cl)c3)CC2)CCCO1 [Compound 25, N-3,4-dichlorobenzyl-[6-methyl-2,3-dihydropyran-5-carboxylic acid]-piperazide]
[3]
  IC50: 1 to 10 mg/L (≈ 2.71 to 27.1 µM)
[5]
  IC50: 1 to 10 mg/L (≈ 2.71 to 27.1 µM)
[6]; dose 6 (82 g)
  Coronary through-flow: Duration (initial or only value): 8.0 min
[6]; dose 30 (82 g)
  Coronary through-flow: Change (initial or only value): +31%
  Coronary through-flow: Duration (initial or only value): 27.0 min
[7]; dose 6 (82 g)
  Action on the heart mechanogram: (--) (reduction of 10%)
[7]; dose of 30 μg
  reduction of the heart muscle force: less than 25%
[8]
  IC50: > 10 mg/L

## CC1=C(C(=O)N2CCN(Cc3c(C)cc(C)cc3C)CC2)CCCO1 [Compound 26, N-(2,4,6-Trimethylbenzyl)-N-2-methyl-5,6-dihydro-pyran-3-carbonyl-piperazine-hydrochloride]
[6]; dose 30 (82 g)
  Coronary through-flow: Change (initial or only value): +13%
  Coronary through-flow: Duration (initial or only value): 5 min
[6]; dose 100 (82 g)
  Coronary through-flow: Change (initial or only value): +21%
  Coronary through-flow: Duration (initial or only value): > 12 min

## CC1=C(C(=O)N2CCN(Cc3cccs3)CC2)CCCO1 [Compound 28]
[3]
  Spasmolytic action against Acetylcholine (ED50): .phi.
[5]
  Spasmolytic action against Histamine (ED50): .phi.
[8]
  Spasmolytic action against BaCl2 (ED50): .phi.

## CC1OCCCC1C(=O)N1CCN(Cc2ccccc2)CC1 (stereo not shown) [Compound 29, N-benzyl-[6-methyl-tetrahydropyran-5-carboxylic acid]-piperazide]
[3]
  IC50: > 10 mg/L
[5]
  IC50: > 10 mg/L
[8]
  IC50: > 10 mg/L

## O=C(c1cc2ccccc2[nH]1)N1CCN(Cc2ccccc2)CC1 [Compound 30, N-Benzyl-indole-2-carboxylic acid piperazide]
[6]; dose 10 (82 g)
  Coronary through-flow: Change (initial or only value): +90%
  Coronary through-flow: Duration (initial or only value): 12 min

## O=C(c1cccs1)N1CCN(Cc2cccs2)CC1 [Compound 42]
[4]
  change in vivo at 25 mg/kg: -49%
[9]; ip, i.p. mouse
  LD50: 100 to 250 mg/kg

## CN(C)CCCN1c2ccccc2CCc2ccccc21 [Imipramine, 5-(3'-dimethylaminopropyl)-10-11-dihydro-5-H-dibenz-[b,f]-azepine hydrochloride, reference compound]
[3]
  IC50: 0.01 to 0.1 mg/L
[4]; in vivo
  activity in reserpine test (in words): high activity
[4]
  change in vivo at 25 mg/kg: -76%
[5]
  IC50: 0.001 mg/L
[6]
  action on coronary flow / coronary vessels (in words): initially a brief rise in coronary flow but this changes into a long contraction, and thus damages the heart
[6]; dose 10 (82 g)
  Coronary through-flow: Change (initial or only value): +19%
  Coronary through-flow: Change (second value, subsequent contraction): -18%
  Coronary through-flow: Duration (initial or only value): 0.5 min
  Coronary through-flow: Duration (second value, subsequent contraction): 21 min
[6]; dose 20 (82 g)
  Coronary through-flow: Change (initial or only value): +28%
  Coronary through-flow: Change (second value, subsequent contraction): -29%
  Coronary through-flow: Duration (initial or only value): 0.6 min
  Coronary through-flow: Duration (second value, subsequent contraction): 26 min
[6]; dose 30 (82 g)
  Coronary through-flow: Change (initial or only value): +84%
  Coronary through-flow: Change (second value, subsequent contraction): -22%
  Coronary through-flow: Duration (second value, subsequent contraction): > 10 min
[7]; dose 10 (82 g)
  Action on the heart mechanogram: -- (reduction of 25%)
[7]; dose 20 (82 g)
  Action on the heart mechanogram: -- (reduction of 25%)
[7]; dose 30 (82 g)
  Action on the heart mechanogram: ---- (reduction of 50%)
[7]; dose of 10 μg
  reduction of the heart muscle force: 25%
[7]; dose of 20 μg
  reduction of the heart muscle force: 25%
[7]; dose of 30 μg
  reduction of the heart muscle force: 50%
[8]
  IC50: 0.1 to 1 mg/L
